Reference: patent US20240228499A1, “MASP-2 INHIBITORS AND METHODS OF USE” (Omeros Corporation, priority 2022, published 2024)
Structures can show the parent of a compound that is named as a salt.

How the values were obtained:
human a-thrombin = molecular target: T1, human a-thrombin (Homo sapiens, UniProt P00734); assay: Enzymatic assay for thrombin (fluorogenic peptide substrate Boc-VPR-AMC); type: biochemical; details: room temperature, 20 mM Hepes pH 7.4, 20 min
T1 construct: enzyme (human a-thrombin (BioPharm® Lab.)); purchased BioPharm Lab
Protocol: The thrombin assay utilizes a fluorogenic peptide substrate (Boc-VPR-AMC (R&D Systems) and was run at room temperature in an assay buffer containing 20 mM Hepes, pH 7.4, 140 mM NaCl and 0.1% Tween 20. Assay parameters were adjusted such that the assay was linear with respect to time, enzyme, and substrate concentrations. Under these optimized assays conditions, IC50 values were equivalent to Ki values, except in a few cases of “tight binding” inhibitors. Cases of “tight binding” or possible “slow binding” inhibitors were handled by the methods described in Copeland R.A. (2013) Evaluation of Enzyme Inhibitors in Drug Discovery. 2nd Ed. John Wiley and Sons, Inc., Chapters 5-7.
The thrombin assay protocol was carried out as follows. Test compounds were serially diluted in DMSO and then 100 nL of each dilution was transferred to the assay plate(s). 10 μL of Assay Buffer was added, followed by 15 μL of enzyme (human a-thrombin (BioPharm® Lab.)) in assay buffer. 15 μL of substrate in assay buffer was then added and the sample mixed to start the reaction. After 20 min at room temperature, 15 μL of a stop solution (0.1 M acetic acid) was added, the sample was mixed, and the plates were read on a SpectraMax® i3× Microplate Reader with the data exported as Excel files. Each assay plate included a “no inhibitor” (DMSO only) control, a “no enzyme” control, and a reference inhibitor control. % Activity values=100*(ave. test comp. fluorescence−ave. “no enz” fluorescence)/(ave. “DMSO only” fluorescence−ave. “no enz” fluorescence). IC50 and Ki values were very reproducible, with values falling well within +2-fold.

MASP-2 (CCP1-CCP2-SP) = molecular target: T2, MASP-2 (CCP1-CCP2-SP) (Homo sapiens, UniProt O00187); assay: Enzymatic assay for MASP-2 inhibitory activity (fluorogenic substrate); type: biochemical; details: room temperature, 20 mM Hepes pH 7.4, 20 min
T2 construct: 15 μL of Enzyme MASP-2 (CCP1-CCP2-SP) in Assay Buffer
T2 sequence (O00187 287-686 limits assumed): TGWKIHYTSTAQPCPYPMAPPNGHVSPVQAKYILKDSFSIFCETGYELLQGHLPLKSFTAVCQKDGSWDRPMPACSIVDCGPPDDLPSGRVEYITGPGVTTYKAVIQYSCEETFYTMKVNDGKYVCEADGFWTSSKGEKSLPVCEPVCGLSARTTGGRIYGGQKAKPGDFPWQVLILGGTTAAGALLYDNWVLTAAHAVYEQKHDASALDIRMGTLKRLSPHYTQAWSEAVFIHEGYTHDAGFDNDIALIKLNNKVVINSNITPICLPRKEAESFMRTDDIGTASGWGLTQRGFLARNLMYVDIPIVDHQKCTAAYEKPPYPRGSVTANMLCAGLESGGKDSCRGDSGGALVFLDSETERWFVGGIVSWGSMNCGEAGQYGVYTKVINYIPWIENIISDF
Protocol: The MASP-2 assay utilizes a fluorogenic substrate, based on the cleavage site for its natural substrate C2. The assay was run at room temperature in an assay buffer containing 20 mM HEPES, pH 7.4, 140 mM NaCl and 0.1% Tween 20. Assay parameters were adjusted such that the assay was linear with respect to time, enzyme, and substrate concentrations. Under the optimized assays conditions, IC50 values were equivalent to Ki values, except in the few cases of “tight binding” inhibitors. Cases of “tight binding” or possible “slow binding” inhibitors were handled by the methods described in Copeland R. A. (2013) Evaluation of Enzyme Inhibitors in Drug Discovery. 2nd Ed., John Wiley and Sons, Inc., Chapters 5-7.
The MASP-2 assay protocol was carried out as follows. Test compounds were serially diluted in DMSO and then 100 nL of each dilution was transferred to the assay plate(s). 10 μL of Assay Buffer was added, followed by 15 μL of Enzyme MASP-2 (CCP1-CCP2-SP) in Assay Buffer. 15 μL of Substrate in Assay Buffer was then added and the mixture was mixed to start the reaction. After 20 min at room temperature, 15 μL of a stop solution (0.1 M acetic acid) was added, the sample was mixed, and the plates were read on a SpectraMax i3× Microplate Reader with the data exported as an Excel file. Each assay plate included a “no inhibitor” (DMSO only) control, a “no enzyme” control, and a reference inhibitor control. % Activity values=100*(average test comp. fluorescence−average “no enzyme” fluorescence)/(average “DMSO only” fluorescence−average “no enzyme” fluorescence). IC50 and Ki replicate values were very reproducible, with values well within +2-fold.

Ki (human a-thrombin)	Ki (MASP-2 (CCP1-CCP2-SP))	SMILES
> 25000 nM	2500 to 10000 nM	Cc1cc(C)cc(CNc2cnc3n(c2=O)[C@H](C(=O)NCc2cccnc2C)CC3)c1 [Compound 23, (S)-3-((3,5-dimethylbenzyl)amino)-N-((2-methylpyridin-3-yl)methyl)-4-oxo-4,6,7,8-tetrahydropyrrolo[1,2-a]pyrimidine-6-carboxamide, trifluoroacetate]
10000 to 25000 nM	< 500 nM	Cc1nc(N)ccc1CNC(=O)[C@@H]1CCc2ncc(NCc3cnn(-c4ccccc4)c3)c(=O)n21 [Compound 24, (S)—N-((6-amino-2-methylpyridin-3-yl)methyl)-4-oxo-3-(((1-phenyl-1H-pyrazol-4-yl)methyl)amino)-4,6,7,8-tetrahydropyrrolo[1,2-a]pyrimidine-6-carboxamide, trifluoroacetate]
500 to 2500 nM	< 500 nM	CCc1cccc(CNc2cnc3n(c2=O)[C@H](C(=O)NCc2ccc(N)nc2C)CC3)c1 [Compound 26]
500 to 2500 nM	< 500 nM	Cc1nc(N)ccc1CNC(=O)[C@@H]1CCc2ncc(NCc3ccccc3C(F)F)c(=O)n21 [Compound 27, (S)—N-((6-amino-2-methylpyridin-3-yl)methyl)-3-((2-(difluoromethyl)benzyl)amino)-4-oxo-4,6,7,8-tetrahydropyrrolo[1,2-a]pyrimidine-6-carboxamide, di-trifluoroacetate]
500 to 2500 nM	< 500 nM	Cc1nc(N)ccc1CNC(=O)[C@@H]1CCc2ncc(NCc3cc(F)ccc3F)c(=O)n21 [Compound 28, (S)-N-((6-amino-2-methylpyridin-3-yl)methyl)-3-((2,5-difluorobenzyl)amino)-4-oxo-4,6,7,8-tetrahydropyrrolo[1,2-a]pyrimidine-6-carboxamide, di-trifluoroacetate]
500 to 2500 nM	< 500 nM	Cc1cc(CNc2cnc3n(c2=O)[C@H](C(=O)NCc2ccc(N)nc2C)CC3)cc(C(F)(F)F)c1 [Compound 29, (S)-N-((6-amino-2-methylpyridin-3-yl)methyl)-3-((3-methyl-5-(trifluoromethyl)benzyl)amino)-4-oxo-4,6,7,8-tetrahydro-pyrrolo[1,2-a]pyrimidine-6-carboxamide, di-trifluoroacetate]
500 to 2500 nM	< 500 nM	Cc1cccc(CNc2cnc3n(c2=O)[C@H](C(=O)NCc2ccc(N)nc2C)CC3)c1C [Compound 30, (S)-N-((6-amino-2-methylpyridin-3-yl)methyl)-3-((2,3-dimethylbenzyl)amino)-4-oxo-4,6,7,8-tetrahydropyrrolo[1,2-a]pyrimidine-6-carboxamide, trifluoroacetate]
500 to 2500 nM	< 500 nM	Cc1ccc(F)cc1CNc1cnc2n(c1=O)[C@H](C(=O)NCc1ccc(N)nc1C)CC2 [Compound 31, (S)-N-((6-amino-2-methylpyridin-3-yl)methyl)-3-((5-fluoro-2-methylbenzyl)amino)-4-oxo-4,6,7,8-tetrahydropyrrolo[1,2-a]pyrimidine-6-carboxamide, di-trifluoroacetate]
10000 to 25000 nM	< 500 nM	Cc1nc(N)ccc1CNC(=O)[C@@H]1CCc2ncc(NCc3c(F)cccc3F)c(=O)n21 [Compound 32, (S)-N-((6-amino-2-methylpyridin-3-yl)methyl)-3-((2,6-difluorobenzyl)amino)-4-oxo-4,6,7,8-tetrahydropyrrolo[1,2-a]pyrimidine-6-carboxamide, di-trifluoroacetate]
500 to 2500 nM	< 500 nM	Cc1cccc(CNc2cnc3n(c2=O)[C@H](C(=O)NCc2ccc(N)nc2C)CC3)c1F [Compound 33, (S)-N-((6-amino-2-methylpyridin-3-yl)methyl)-3-((2-fluoro-3-methylbenzyl)amino)-4-oxo-4,6,7,8-tetrahydropyrrolo[1,2-a]pyrimidine-6-carboxamide, di-trifluoroacetate]
< 500 nM	< 500 nM	Cc1cc(F)cc(CNc2cnc3n(c2=O)[C@H](C(=O)NCc2ccc(N)nc2C)CC3)c1 [Compound 34, (S)-N-((6-amino-2-methylpyridin-3-yl)methyl)-3-((3-fluoro-5-methylbenzyl)amino)-4-oxo-4,6,7,8-tetrahydropyrrolo[1,2-a]pyrimidine-6-carboxamide, di-trifluoroacetate]
500 to 2500 nM	< 500 nM	COc1c(F)cc(F)cc1CNc1cnc2n(c1=O)[C@H](C(=O)NCc1ccc(N)nc1C)CC2 [Compound 35, (S)-N-((6-amino-2-methylpyridin-3-yl)methyl)-3-((3,5-difluoro-2-methoxybenzyl)amino)-4-oxo-4,6,7,8-tetrahydropyrrolo[1,2-a]pyrimidine-6-carboxamide, trifluoroacetate]
2500 to 10000 nM	< 500 nM	COc1c(F)ccc(F)c1CNc1cnc2n(c1=O)[C@H](C(=O)NCc1ccc(N)nc1C)CC2 [Compound 36, (S)-N-((6-amino-2-methylpyridin-3-yl)methyl)-3-((3,6-difluoro-2-methoxybenzyl)amino)-4-oxo-4,6,7,8-tetrahydropyrrolo[1,2-a]pyrimidine-6-carboxamide, di-trifluoroacetate]
< 500 nM	< 500 nM	Cc1nc(N)ccc1CNC(=O)[C@@H]1CCc2ncc(NCc3cccc(OC4CC4)c3)c(=O)n21 [Compound 37, (S)-N-((6-amino-2-methylpyridin-3-yl)methyl)-3-((3-cyclopropoxybenzyl)amino)-4-oxo-4,6,7,8-tetrahydropyrrolo[1,2-a]pyrimidine-6-carboxamide, trifluoroacetate]
2500 to 10000 nM	< 500 nM	Cc1nc(N)ccc1CNC(=O)[C@@H]1CCc2ncc(NCc3cc(C(F)(F)F)ccc3F)c(=O)n21 [Compound 38, (S)-N-((6-amino-2-methylpyridin-3-yl)methyl)-3-((2-fluoro-5-(trifluoromethyl)benzyl)amino)-4-oxo-4,6,7,8-tetrahydro-pyrrolo[1,2-a]pyrimidine-6-carboxamide, di-trifluoroacetate]
500 to 2500 nM	< 500 nM	Cc1nc(N)ccc1CNC(=O)[C@@H]1CCc2ncc(NCc3cccc(OC(F)(F)F)c3F)c(=O)n21 [Compound 39, (S)-N-((6-amino-2-methylpyridin-3-yl)methyl)-3-((2-fluoro-3-(trifluoromethoxy)benzyl)amino)-4-oxo-4,6,7,8-tetrahydro-pyrrolo[1,2-a]pyrimidine-6-carboxamide, di-trifluoroacetate]
500 to 2500 nM	< 500 nM	Cc1nc(N)ccc1CNC(=O)[C@@H]1CCc2ncc(NCc3cccc(-n4cccn4)c3)c(=O)n21 [Compound 40, (S)-3-((3-(1H-pyrazol-1-yl)benzyl)amino)-N-((6-amino-2-methylpyridin-3-yl)methyl)-4-oxo-4,6,7,8-tetrahydropyrrolo[1,2-a]pyrimidine-6-carboxamide, trifluoroacetate]
500 to 2500 nM	< 500 nM	Cc1nc(N)ccc1CNC(=O)[C@@H]1CCc2ncc(NCc3cc(OC(F)(F)F)ccc3F)c(=O)n21 [Compound 41, (S)-N-((6-amino-2-methylpyridin-3-yl)methyl)-3-((2-fluoro-5-(trifluoromethoxy)benzyl)amino)-4-oxo-4,6,7,8-tetrahydro-pyrrolo[1,2-a]pyrimidine-6-carboxamide, di-trifluoroacetate]
500 to 2500 nM	< 500 nM	Cc1nc(N)ccc1CNC(=O)[C@@H]1CCc2ncc(NCc3cccc(C(F)(F)F)c3F)c(=O)n21 [Compound 42, (S)-N-((6-amino-2-methylpyridin-3-yl)methyl)-3-((2-fluoro-3-(trifluoromethyl)benzyl)amino)-4-oxo-4,6,7,8-tetrahydro-pyrrolo[1,2-a]pyrimidine-6-carboxamide, di-trifluoroacetate]
